Source: ChEMBL document CHEMBL3227920, “Synthesis and activities of antitumor agents” (J Med Chem, 1979)
Activity calls are given as the source filed them. The calls are words filed in the database; no cut-off is given here.

Tests used:
[1] = tested on: L1210; assay: Antitumor activity against mouse L1210 cells allografted in BDF1 mouse assessed as mean survival days at 20 mg/kg, ip qd for 3 days; format: functional; details: route intraperitoneal
[2] = tested on: L1210; assay: Antitumor activity against mouse L1210 cells allografted in BDF1 mouse assessed as mean survival days at 20 mg/kg, ip qd for 3 days relative to control; format: functional; details: route intraperitoneal
[3] = tested on: L1210; assay: Antitumor activity against mouse L1210 cells allografted in BDF1 mouse assessed as increase in life span at 20 mg/kg, ip qd for 3 days relative to control; format: functional; details: route intraperitoneal
[4] = tested on: Mus musculus; assay: Toxicity in mouse L1210 cells allografted BDF1 mouse assessed as congestive liver at 40 mg/kg, ip qd for 3 days; format: organism-based; design: dose 40 mg/kg, route intraperitoneal; details: in vivo, 72 h
[5] = tested on: Mus musculus; assay: Toxicity in mouse L1210 cells allografted BDF1 mouse assessed as atrophic spleen at 40 mg/kg, ip qd for 3 days; format: organism-based; design: dose 40 mg/kg, route intraperitoneal; details: in vivo, 72 h
[6] = tested on: Mus musculus; assay: Toxicity in mouse L1210 cells allografted BDF1 mouse assessed as atrophic liver at 20 mg/kg, ip qd for 3 days; format: organism-based; design: dose 20 mg/kg, route intraperitoneal; details: in vivo, 72 h
[7] = tested on: L1210; assay: Antitumor activity against mouse L1210 cells allografted in BDF1 mouse assessed as mean survival days at 8 mg/kg, ip qd for 3 days; format: functional; details: route intraperitoneal
[8] = tested on: L1210; assay: Antitumor activity against mouse L1210 cells allografted in BDF1 mouse assessed as increase in life span at 8 mg/kg, ip qd for 3 days relative to control; format: functional; details: route intraperitoneal
[9] = tested on: L1210; assay: Antitumor activity against mouse L1210 cells allografted in BDF1 mouse assessed as host survival at 8 mg/kg, ip qd for 3 days measured on day 60 relative to control; format: functional, organism-based; design: dose 8 mg/kg
[10] = tested on: L1210; assay: Antitumor activity against mouse L1210 cells allografted in BDF1 mouse assessed as mean survival days at 10 mg/kg, ip qd for 3 days; format: functional; details: route intraperitoneal
[11] = tested on: L1210; assay: Antitumor activity against mouse L1210 cells allografted in BDF1 mouse assessed as mean survival days at 10 mg/kg, ip qd for 3 days relative to control; format: functional; details: route intraperitoneal
[12] = tested on: L1210; assay: Antitumor activity against mouse L1210 cells allografted in BDF1 mouse assessed as increase in life span at 10 mg/kg, ip qd for 3 days relative to control; format: functional; details: route intraperitoneal
[13] = tested on: L1210; assay: Antitumor activity against mouse L1210 cells allografted in BDF1 mouse assessed as mean survival days at 8 mg/kg, ip qd for 3 days relative to control; format: functional; details: route intraperitoneal

| Structure (SMILES) | Survival [7] [days] | Activity [8] [%] | Activity [9] | also measured |
| --- | --- | --- | --- | --- |
| O=NN(CCCl)C(=O)N[C@@H]1O[C@H](CO)[C@@H](O[C@H]2O[C@H](CO)[C@@H](O)[C@H](O)[C@H]2O)[C@H](O)[C@H]1O | – | – | – | Survival [1]: 45.3 days; T/C [2]: 9; Activity [3]: 403.3%; Activity [4]: Toxic; Activity [5]: Toxic; Activity [6]: Toxic |
| O=NN(CCCl)C(=O)N[C@@H]1O[C@H](CO)[C@@H](O)[C@H](O)[C@@H]1O | 18.3 | 103.3 | inactive | – |
| O=NN(CCCl)C(=O)N[C@@H]1O[C@H](CO)[C@@H](O[C@@H]2O[C@H](CO)[C@H](O)[C@H](O)[C@H]2O)[C@H](O)[C@H]1O | – | – | – | Survival [10]: 47 days; T/C [11]: 9.7; Activity [12]: 384.5% |
| O=NN(CCCl)C(=O)N[C@@H]1O[C@H](CO)[C@@H](O)[C@H](O)[C@H]1O | 60 | 512.2 | Active | – |
| O=NN(CCCl)C(=O)N[C@@H]1OC[C@@H](O)[C@H](O)[C@H]1O | 60 | 445.5 | Active | T/C [13]: 11 |
| O=NN(CCCl)C(=O)N[C@@H]1O[C@H](CO)[C@@H](O[C@@H]2O[C@H](CO)[C@@H](O)[C@H](O)[C@H]2O)[C@H](O)[C@H]1O | 42 | 483.3 | – | T/C [13]: 7.2 |
| O=NN(CCCl)C(=O)N[C@@H]1O[C@H](CO)[C@H](O)[C@H](O)[C@H]1O | 47 | 405.4 | – | – |
